Source: patent US8410161B2, “Thioxanthone ring system derivatives” (National Defense Medical Center, priority 2010, dated 2013)
Like-named read-outs stand apart in the source and are kept apart here.

Key:
Assay type in all cases: cell-based
A control cell lines = test: MTT assay, A control cell lines (lung cancer cell); conditions: for inhibition effect on A control cell line (in words): summary of MTT cell viabilities
Text: Please refer to Table 1 and FIGS. 4A-4C. According to a MTT assay (Table 1), various cell viabilities of the A control cell lines can be obtained and illustrated in FIG. 4A while the compounds No. 2˜30 are used to treat A control cell lines, wherein A control cell lines are lung cancer cell.

A3 cell lines = test: MTT assay, A3 cell lines (lung cancer stem cell)
Text: Please to FIG. 4B, various cell viabilities of the A3 cell lines can be obtained through the MTT assay and illustrated in FIG. 4B while the compounds No. 1˜30 are used to treat A3 cell lines, wherein A3 cell lines are lung cancer stem cell.

[1] = MTT assay, HEL299 fibroblast; conditions: human
Text: (§1) Please refer to FIG. 4C, various cell viabilities of the HEL299 cell lines can be obtained through the MTT assay while the compounds No. 1˜30 are used to treat HEL299 cell lines, wherein HEL299 cell lines are fibroblast.

HEL299 fibroblast = test: MTT assay, HEL299 fibroblast
Text: as §1

RPMI-8226 = test: NCI in vitro DTP human cell line screen, RPMI-8226; conditions: Leukemia, 1.00E−5 Molar
Description: (§2) Then, a cell toxicity assay of the cancer lines made by National Cancer Institute will be discussed as follows. The cell toxicity assay is performed by choosing ten compounds (existing certification numbers) from the 59 compounds disclosed in the present invention first.

COLO 205 = test: NCI in vitro DTP human cell line screen, COLO 205; conditions: Colon Cancer, 1.00E−5 Molar
Description: as §2

UACC-62 = test: NCI in vitro DTP human cell line screen, UACC-62; conditions: Melanoma, 1.00E−5 Molar
Description: as §2

OVCAR-3 = test: NCI in vitro DTP human cell line screen, OVCAR-3; conditions: Ovarian Cancer, 1.00E−5 Molar
Description: as §2

786-0 = test: NCI in vitro DTP human cell line screen, 786-0; conditions: Renal Cancer, 1.00E−5 Molar
Description: as §2

SN12C = test: NCI in vitro DTP human cell line screen, SN12C; conditions: Renal Cancer, 1.00E−5 Molar
Description: as §2

MDA-MB-231/ATCC = test: NCI in vitro DTP human cell line screen, MDA-MB-231/ATCC; conditions: Breast Cancer, 1.00E−5 Molar
Description: as §2

O=c1c2ccccc2sc2c(Cl)c(SCc3ccccc3)ccc12 [No. 23, 3-(Benzylthio)-4-chloro-9H-thioxanthen-9-one]
cell viabilities of A control cell lines (MTT assay) (A control cell lines; A control, lung cancer cell): 36.6%
inhibition effect on A control cell line (in words) (A control cell lines): inhibition effect
cell viabilities of A3 cell lines (MTT assay) (A3 cell lines; A3, lung cancer stem cell): 65.9%
inhibition effect on A3 cell line (in words) (A3 cell lines; summary of MTT cell viabilities): inhibition effect
viability ([1]; HEL299, normal fibroblast, read-out: cell viabilities of HEL299 cell lines (MTT assay)): 82.5%
cell viabilities of HEL299 cell lines (MTT assay) (HEL299 fibroblast; HEL299, normal fibroblast): 85.2 ± 5.26%
Growth Percent (RPMI-8226): 89.98%
Growth Percent (COLO 205): 63.36%
Growth Percent (UACC-62): 90.92%
Growth Percent (OVCAR-3): 76.97%
Growth Percent (786-0): 78.53%
Growth Percent (SN12C): 79.25%
Growth Percent (MDA-MB-231/ATCC): 71.98%

COc1ccc(CSc2ccc3c(=O)c4ccccc4sc3c2Cl)cc1 [No. 27, 4-Chloro-3-(4-methoxybenzylthio)-9H-thioxanthen-9-one]
cell viabilities of A control cell lines (MTT assay) (A control cell lines): 50.5%
inhibition effect on A control cell line (in words) (A control cell lines): inhibition effect
cell viabilities of A3 cell lines (MTT assay) (A3 cell lines): 101 ± 2.95%
viability [1]: 92.4%
cytotoxicity effect on the normal fibroblast (in words) (HEL299 fibroblast): without the cytotoxicity effect
Growth Percent (RPMI-8226): 103.69%
Growth Percent (COLO 205): 99.12%
Growth Percent (UACC-62): 91.61%
Growth Percent (OVCAR-3): 125.16%
Growth Percent (786-0): 100.89%
Growth Percent (SN12C): 94.49%
Growth Percent (MDA-MB-231/ATCC): 96.93%

CCCSc1ccc2c(=O)c3ccccc3sc2c1Cl [No. 3, 4-Chloro-3-(propylthio)-9H-thioxanthen-9-one]
cell viabilities of A control cell lines (MTT assay) (A control cell lines): 84.8 ± 2.95%
cell viabilities of A3 cell lines (MTT assay) (A3 cell lines): 103 ± 10.2%
viability [1]: 88.9 ± 11.1%
Growth Percent (RPMI-8226): 104.20%
Growth Percent (COLO 205): 92.63%
Growth Percent (UACC-62): 84.56%
Growth Percent (OVCAR-3): 90.35%
Growth Percent (786-0): 101.51%
Growth Percent (SN12C): 85.72%
Growth Percent (MDA-MB-231/ATCC): 85.71%

O=c1c2ccccc2sc2c(Cl)c(SCc3ccc(Cl)cc3)ccc12 [No. 26, 4-Chloro-3-(4-chlorobenzylthio)-9H-thioxanthen-9-one]
cell viabilities of A control cell lines (MTT assay) (A control cell lines): 96.8 ± 4.29%
cell viabilities of A3 cell lines (MTT assay) (A3 cell lines): 62.4%
viability [1]: 58.7 ± 5.55%
Growth Percent (RPMI-8226): 91.09%
Growth Percent (COLO 205): 108.87%
Growth Percent (UACC-62): 92.54%
Growth Percent (OVCAR-3): 130.11%
Growth Percent (786-0): 106.48%
Growth Percent (SN12C): 94.51%
Growth Percent (MDA-MB-231/ATCC): 95.00%
